The values below come from patent publication US9221833B2, “Antiviral compounds” (GILEAD PHARMASSET LLC, priority 2011, dated 2015).

Where two headings read alike, the source gives them in different places. Where only a bound is given, the exact number is not on record here.

The nature of data set [1]: IV and PO Single Dose Pharmacokinetic Studies in SD Rats. In kind it is in vivo, male Sprague-Dawley (SD) rats. To be noted: oral bioavailability, PO 2 mg/kg vs IV infusion 1 mg/kg. Here is the method:
IV and PO Single Dose Pharmacokinetic Studies in SD Rats: The pharmacokinetics of selected compounds was characterized in male Sprague-Dawley (SD) rats (250-300g). […] The intravenous (IV) dosing vehicle was 5% ethanol, 35% polyethylene glycol 400 (PEG 400) and 60% water pH 2.0. […] Serial blood samples (approximately 0.3 mL each) were collected from jugular vein or other suitable vein at specified time points. […] The blood samples were collected into Vacutainer™ tubes containing EDTA-K3 as the anti-coagulant and were centrifuged at approximately 4° C. to obtain plasma. The plasma samples were stored at −20° C. until analysis by LC/MS/MS. […] Standard curve and quality control samples were prepared in male rat plasma and processed in the same way as the test samples to generate quantitative data. […] Values below the lower limit of quantification (LLOQ) were assigned a value of zero if predose and treated as missing thereafter. Area under the curve (AUC) was calculated using the linear trapezoidal rule. The oral bioavailability (% F) was determined by comparison of the area under the curve (AUC) of the compound and/or a metabolite generated in plasma following oral administration to that generated following intravenous administration.

Data set [2] deals with Q30R in genotype 1a NS5A. Description: Antiviral potency against resistance mutant, 1a Pi-Rluc replicon in Huh-7-derived cured-51 cells. In kind it is cell-based, HCV. To be noted: genotype 1a Q30R resistance mutant, read-out: 1a Q30R. In general terms: A replicon is a self-replicating genome or part of one, used to study replication in cells.
Data set [3] has as its system genotype 2a J6 strain NS5A gene (M31 present). Description: Replicon assay, NS5A chimeric 2a JFH-1 replicon with 2a J6 NS5A, transient (t) or stable (s), Huh-Lunet cells. In kind it is cell-based, HCV. To be noted: transiently transfected cells (t).
The subject of data set [4] is genotype 3a S52 strain NS5A gene. Description: Replicon assay, NS5A chimeric 1b Con1 replicon with 3a NS5A, transiently transfected Huh-Lunet cells. The format is cell-based, HCV. To be noted: genotype 3a, read-out: 3a.
The subject of data set [5] is genotype 2b MD2b-1 strain NS5A gene (M31 present). Nature of the data set: microbe, parasite or virus in culture. The format is cell-based, HCV.
Data set [6] deals with genotype 2a JFH-1 replicon (L31 present in NS5A). Nature of the data set: microbe, parasite or virus in culture. In kind it is cell-based, HCV. To be noted: genotype 2a JFH replicon, read-out: 2a JFH.
In data set [7] the test system is genotype 1b Con1 replicon. Nature of the data set: microbe, parasite or virus in culture. The format is cell-based, HCV. To be noted: read-out: 1b.

For `COC[C@H]1C[C@@H](c2nc3ccc4cc5c(cc4c3[nH]2)OCc2cc(-c3cnc([C@@H]4CC[C@H](C)N4C(=O)[C@@H](NC(=O)OC)C(C)C)[nH]3)ccc2-5)N(C(=O)[C@@H](NC(=O)OC)[C@@H](C)OC)C1` [Example OM, Methyl {(2S)-1-[(2S,4S)-2-(5-{2-[(2S,5S)-1-{(2S,3R)-3-methoxy-2-[(methoxycarbonyl)amino]butanoyl}-4-(methoxymethyl)pyrrolidin-2-yl]-1,11-dihydroisochromeno[4′,3′:6,7]naphtho[1,2-d]imidazol-9-yl}-1H-imidazol-2-yl)-5-methylpyrrolidin-1-yl]-3-methyl-1-oxobutan-2-yl}carbamate], in data set [1], the “Rat % F” value was 12.2%. For the same compound, the EC50 in data set [2] (EC50 range class) was less than 1 nM; in data set [2], 0.035 nM; in data set [3] (genotype 2a J6, EC50 range class, if unavailable stably replicating cells (s), read-out: 2a J6), less than 1 nM; in data set [3] (read-out: 2a J6 (t)), 0.045 nM; in data set [4] (EC50 range class), less than 1 nM; in data set [4], 0.035 nM. For the same compound, the EC50 is less than 1 nM in data set [5] (genotype 2b, EC50 range class, transiently transfected cells (t), if unavailable stably replicating cells (s), read-out: 2b); 0.054 nM in data set [5] (stably replicating cells (s), read-out: 2b (s)); 0.053 nM in data set [5] (transiently transfected cells (t), read-out: 2b (t)); less than 1 nM in data set [6] (EC50 range class); 0.009 nM in data set [6]; 0.019 nM in data set [7].
